Legend:
[1] = target: Epidermal growth factor receptor (Homo sapiens, UniProt P00533); assay: Biochemical Assays for Inhibition of Wild-Type and Mutant EGFRs
Procedure: (§1) Briefly, specific kinase/substrate pairs along with required cofactors were prepared in reaction buffer; 20 mM Hepes pH 7.5, 10 mM […], 1 mM EGTA, 0.02% Brij35, 0.02 mg/ml BSA, 0.1 mM Na3VO4, 2 mM DTT, 1% DMSO. Compounds were delivered into the reaction, followed […] later by addition of a mixture of ATP (Sigma, St. Louis MO) and 33P ATP (Perkin Elmer, Waltham MA) to a final concentration of 10 μM. Reactions were carried out at room temperature for 120 min, followed by spotting of the reactions onto P81 ion exchange filter paper (Whatman Inc., Piscataway, NJ). Unbound phosphate was removed by extensive washing of filters in 0.75% phosphoric acid. […] IC50 values and curve fits were obtained using Prism (GraphPad Software).

[2] = target: Epidermal growth factor receptor [L858R,T790M,C797S] (Homo sapiens, UniProt P00533, C797S/L858R/T790M); assay: as above
Procedure: as §1

[3] = target: Epidermal growth factor receptor [L858R] (Homo sapiens, UniProt P00533, L858R); assay: as above
Procedure: as §1

[4] = target: Epidermal growth factor receptor [T790M,L858R] (Homo sapiens, UniProt P00533, L858R/T790M); assay: as above
Procedure: as §1

[5] = target: Dual specificity protein kinase CLK1 (Homo sapiens, UniProt P49759); assay: Inhibition of CLK, CLK2, CLK3 and CLK4 Kinase Activity Evaluated at Nanosyn
Procedure: (§2) Table 3: Kinase protein and substrate were pre-diluted in the HEPES assay buffer (100 mM HEPES, pH 7.5, 0.01% Triton X-100, 0.1% BSA, 5 mM MgCl2, […] DTT, […], […] Beta-Glycerophosphate) dispensed into 384 well plate (5 μL per well). Control samples (0%-inhibition in the absence of inhibitor, DMSO only) and 100%-inhibition (in the absence of enzyme) were assembled in replicates of six and were used to calculate %-inhibition in the presence of compounds. Test compounds were added to the protein samples by acoustic dispensing (Labcyte Echo550). Concentration of DMSO was equalized to 1% in all samples. Reactions were initiated by addition of ATP by acoustic dispensing (Labcyte Echo550) and incubated according to assay specific incubation time. After incubation. 5 μL of Promega ADP-Glo reagent was added and incubated for 40 minutes. After 40 minutes, 10 uL of Promega kinase detection reagent was added. After 10 min of incubation with Kinase detection reagent, the luminescence was read on microplate reader (Biotek Synergy).

[6] = target: Dual specificity protein kinase CLK2 (Homo sapiens, UniProt P49760); assay: as above
Procedure: as §2

[7] = target: Dual specificity protein kinase CLK3 (Homo sapiens, UniProt P49761); assay: as above
Procedure: as §2

[8] = target: Dual specificity protein kinase CLK4 (Homo sapiens, UniProt Q9HAZ1); assay: as above
Procedure: as §2

Chain of Epidermal growth factor receptor [L858R,T790M,C797S] (P00533 25-1210 T790M/C797S/L858R limits assumed): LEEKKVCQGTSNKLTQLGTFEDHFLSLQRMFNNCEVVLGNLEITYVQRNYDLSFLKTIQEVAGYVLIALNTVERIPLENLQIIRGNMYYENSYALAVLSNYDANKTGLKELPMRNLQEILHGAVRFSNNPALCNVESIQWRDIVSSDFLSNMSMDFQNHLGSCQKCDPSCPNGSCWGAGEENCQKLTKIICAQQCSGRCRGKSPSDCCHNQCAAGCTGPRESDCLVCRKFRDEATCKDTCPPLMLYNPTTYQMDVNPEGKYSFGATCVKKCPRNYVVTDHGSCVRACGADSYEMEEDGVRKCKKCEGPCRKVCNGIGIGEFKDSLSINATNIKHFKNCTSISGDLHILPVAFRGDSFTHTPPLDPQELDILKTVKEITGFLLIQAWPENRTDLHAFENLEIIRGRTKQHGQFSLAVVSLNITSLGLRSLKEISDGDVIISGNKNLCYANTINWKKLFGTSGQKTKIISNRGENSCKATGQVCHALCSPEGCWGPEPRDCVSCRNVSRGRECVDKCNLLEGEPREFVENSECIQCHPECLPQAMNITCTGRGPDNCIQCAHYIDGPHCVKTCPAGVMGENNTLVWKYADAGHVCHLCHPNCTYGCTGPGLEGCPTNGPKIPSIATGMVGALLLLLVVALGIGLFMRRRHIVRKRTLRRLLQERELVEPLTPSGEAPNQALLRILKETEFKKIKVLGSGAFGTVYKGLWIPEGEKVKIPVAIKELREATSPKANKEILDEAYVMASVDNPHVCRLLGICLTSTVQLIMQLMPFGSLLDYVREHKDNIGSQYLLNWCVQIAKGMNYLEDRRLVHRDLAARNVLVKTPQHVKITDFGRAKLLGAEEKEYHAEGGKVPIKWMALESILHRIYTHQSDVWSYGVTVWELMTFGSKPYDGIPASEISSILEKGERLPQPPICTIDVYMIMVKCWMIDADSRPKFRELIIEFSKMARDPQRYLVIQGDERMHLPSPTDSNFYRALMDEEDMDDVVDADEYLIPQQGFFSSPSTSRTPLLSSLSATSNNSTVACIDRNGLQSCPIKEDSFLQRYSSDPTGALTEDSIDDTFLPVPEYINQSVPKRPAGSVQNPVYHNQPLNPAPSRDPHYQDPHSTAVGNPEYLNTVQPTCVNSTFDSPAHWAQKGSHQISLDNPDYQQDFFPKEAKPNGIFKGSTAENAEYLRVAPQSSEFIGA
Chain of Epidermal growth factor receptor [L858R] (P00533 25-1210 L858R limits assumed): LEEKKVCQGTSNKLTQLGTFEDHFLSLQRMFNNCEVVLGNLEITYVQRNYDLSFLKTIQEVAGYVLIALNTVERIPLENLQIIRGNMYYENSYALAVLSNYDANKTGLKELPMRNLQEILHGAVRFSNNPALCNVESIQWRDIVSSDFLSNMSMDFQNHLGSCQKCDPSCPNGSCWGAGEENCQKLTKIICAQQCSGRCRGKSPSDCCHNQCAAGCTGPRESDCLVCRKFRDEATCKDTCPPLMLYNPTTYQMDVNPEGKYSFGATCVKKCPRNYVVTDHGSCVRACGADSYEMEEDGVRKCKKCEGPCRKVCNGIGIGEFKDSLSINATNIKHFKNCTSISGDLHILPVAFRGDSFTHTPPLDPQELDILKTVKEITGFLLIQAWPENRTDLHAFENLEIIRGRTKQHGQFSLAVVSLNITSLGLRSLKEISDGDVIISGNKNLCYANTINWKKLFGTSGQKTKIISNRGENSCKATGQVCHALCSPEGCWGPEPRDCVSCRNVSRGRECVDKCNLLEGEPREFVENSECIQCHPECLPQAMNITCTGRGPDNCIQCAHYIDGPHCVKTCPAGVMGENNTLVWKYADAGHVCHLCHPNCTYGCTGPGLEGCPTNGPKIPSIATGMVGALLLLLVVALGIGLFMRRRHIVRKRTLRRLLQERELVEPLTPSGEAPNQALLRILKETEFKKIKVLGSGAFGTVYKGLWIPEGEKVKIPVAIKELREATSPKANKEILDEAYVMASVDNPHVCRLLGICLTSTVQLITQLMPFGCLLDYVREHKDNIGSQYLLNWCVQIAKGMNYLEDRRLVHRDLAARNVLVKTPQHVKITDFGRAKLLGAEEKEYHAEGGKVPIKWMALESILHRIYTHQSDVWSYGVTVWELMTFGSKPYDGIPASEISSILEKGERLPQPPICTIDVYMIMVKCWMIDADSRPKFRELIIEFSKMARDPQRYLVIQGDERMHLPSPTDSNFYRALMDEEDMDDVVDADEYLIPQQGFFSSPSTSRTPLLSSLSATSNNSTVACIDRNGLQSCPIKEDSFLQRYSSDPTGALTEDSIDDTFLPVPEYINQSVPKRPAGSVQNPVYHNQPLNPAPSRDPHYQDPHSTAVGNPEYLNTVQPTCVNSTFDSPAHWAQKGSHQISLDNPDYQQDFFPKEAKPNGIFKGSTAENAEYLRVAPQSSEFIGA
Chain of Epidermal growth factor receptor (P00533 whole entry): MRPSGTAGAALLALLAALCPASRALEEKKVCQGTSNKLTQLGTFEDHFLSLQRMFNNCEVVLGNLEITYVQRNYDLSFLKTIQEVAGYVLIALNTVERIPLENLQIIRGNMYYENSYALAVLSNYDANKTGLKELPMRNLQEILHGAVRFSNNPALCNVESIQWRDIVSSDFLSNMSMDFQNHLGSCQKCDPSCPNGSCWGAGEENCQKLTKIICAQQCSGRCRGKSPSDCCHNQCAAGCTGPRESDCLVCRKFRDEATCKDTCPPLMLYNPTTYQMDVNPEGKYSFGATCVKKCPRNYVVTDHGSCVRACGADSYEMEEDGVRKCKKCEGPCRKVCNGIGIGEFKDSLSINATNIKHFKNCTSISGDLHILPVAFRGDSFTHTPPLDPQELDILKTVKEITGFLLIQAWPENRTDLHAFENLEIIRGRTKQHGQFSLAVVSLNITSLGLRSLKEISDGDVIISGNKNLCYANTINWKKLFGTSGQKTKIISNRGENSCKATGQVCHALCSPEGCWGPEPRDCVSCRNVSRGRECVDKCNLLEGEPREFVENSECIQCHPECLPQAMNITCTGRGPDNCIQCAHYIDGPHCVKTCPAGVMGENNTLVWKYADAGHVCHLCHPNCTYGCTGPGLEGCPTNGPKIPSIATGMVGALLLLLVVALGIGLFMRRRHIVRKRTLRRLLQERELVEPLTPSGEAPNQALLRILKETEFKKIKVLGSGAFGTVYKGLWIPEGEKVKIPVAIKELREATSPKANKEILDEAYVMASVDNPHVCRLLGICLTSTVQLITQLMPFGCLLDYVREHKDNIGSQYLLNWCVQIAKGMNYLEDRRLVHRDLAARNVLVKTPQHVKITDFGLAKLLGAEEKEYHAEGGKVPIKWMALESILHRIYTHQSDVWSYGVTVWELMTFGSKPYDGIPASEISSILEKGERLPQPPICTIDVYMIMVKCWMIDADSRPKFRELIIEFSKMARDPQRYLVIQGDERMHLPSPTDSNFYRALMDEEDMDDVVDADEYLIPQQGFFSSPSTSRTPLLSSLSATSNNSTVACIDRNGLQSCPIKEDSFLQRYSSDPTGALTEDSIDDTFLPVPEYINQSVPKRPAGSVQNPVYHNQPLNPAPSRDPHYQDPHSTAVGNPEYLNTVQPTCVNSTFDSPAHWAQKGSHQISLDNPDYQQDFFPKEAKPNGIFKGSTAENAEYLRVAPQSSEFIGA
Chain of Epidermal growth factor receptor [T790M,L858R] (P00533 25-1210 T790M/L858R limits assumed): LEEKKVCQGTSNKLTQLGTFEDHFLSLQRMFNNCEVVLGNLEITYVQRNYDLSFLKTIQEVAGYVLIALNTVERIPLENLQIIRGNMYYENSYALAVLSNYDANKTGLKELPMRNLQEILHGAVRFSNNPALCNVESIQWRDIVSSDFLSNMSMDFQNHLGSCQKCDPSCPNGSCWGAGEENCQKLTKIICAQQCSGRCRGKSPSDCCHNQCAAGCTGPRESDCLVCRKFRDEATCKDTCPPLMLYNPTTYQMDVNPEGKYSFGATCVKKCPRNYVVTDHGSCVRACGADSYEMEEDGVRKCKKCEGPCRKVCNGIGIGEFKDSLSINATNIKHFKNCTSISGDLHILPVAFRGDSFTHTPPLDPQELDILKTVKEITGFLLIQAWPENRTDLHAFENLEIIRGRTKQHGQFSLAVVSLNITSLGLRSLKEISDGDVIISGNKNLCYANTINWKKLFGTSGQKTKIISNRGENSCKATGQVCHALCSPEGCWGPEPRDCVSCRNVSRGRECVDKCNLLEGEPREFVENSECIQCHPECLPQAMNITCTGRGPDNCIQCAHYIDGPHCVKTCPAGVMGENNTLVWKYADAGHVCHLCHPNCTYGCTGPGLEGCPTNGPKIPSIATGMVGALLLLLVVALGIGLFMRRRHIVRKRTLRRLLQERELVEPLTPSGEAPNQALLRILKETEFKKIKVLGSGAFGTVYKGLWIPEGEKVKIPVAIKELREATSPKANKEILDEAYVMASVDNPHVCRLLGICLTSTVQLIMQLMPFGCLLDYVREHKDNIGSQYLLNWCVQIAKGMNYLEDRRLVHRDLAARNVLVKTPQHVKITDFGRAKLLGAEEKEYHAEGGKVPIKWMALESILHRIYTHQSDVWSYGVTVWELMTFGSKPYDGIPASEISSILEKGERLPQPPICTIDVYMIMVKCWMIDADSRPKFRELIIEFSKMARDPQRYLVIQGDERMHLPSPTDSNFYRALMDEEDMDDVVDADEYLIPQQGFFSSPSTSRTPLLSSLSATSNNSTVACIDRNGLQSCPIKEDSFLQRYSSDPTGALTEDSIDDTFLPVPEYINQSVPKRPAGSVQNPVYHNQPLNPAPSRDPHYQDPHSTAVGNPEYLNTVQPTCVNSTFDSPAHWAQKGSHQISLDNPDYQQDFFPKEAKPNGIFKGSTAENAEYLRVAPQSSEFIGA

Cc1c2c(nn1[C@H]1CCN(C)C[C@@H]1O)OCCCOc1c(cnn1C)-c1ccc3[nH]nc(c3c1)/C=C/2 (racemic) [US20250353864, Example 83]
IC50 [1]: 61.5 nM | IC50 [2]: 5.29 nM | IC50 [3]: 19 nM | IC50 [4]: 1.48 nM

Cc1nn(C)c2c1/C=C/c1n[nH]c3ccc(cc13)-c1cnn(C)c1CN(C)C[C@H](C)O2 (single isomer, unassigned) [US20250353864, Example 97]
IC50 [1]: 413 nM | IC50 [2]: 28.5 nM | IC50 [3]: 132 nM | IC50 [4]: 10.8 nM

CCOc1nn(CCO)c2c1/C=C/c1n[nH]c3ccc(cc13)-c1cnn(C)c1O[C@H](C)[C@H]1CCCN1C2 (single isomer, unassigned) [US20250353864, Example 241]
IC50 [1]: 0.4 nM | IC50 [2]: 0.28 nM

CCc1nn(C)c2c1/C=C/c1n[nH]c3ccc(cc13)-c1cnn(C)c1OCCCO2 [US20250353864, Example 10]
IC50 [1]: 973 nM | IC50 [2]: 42.2 nM | IC50 [3]: 181 nM

Cc1ccc2c(n1)/C=C/c1n[nH]c3ccc(cc13)-c1cnn(C)c1O[C@@H](C)CCO2 [US20250353864, Example 39]
IC50 [1]: 1070 nM | IC50 [2]: 35.3 nM | IC50 [3]: 222 nM

Cc1nn(C)c2c1/C=C/c1n[nH]c3ccc(cc13)-c1c(C)nn(C)c1OCCN(C)C2 [US20250353864, Example 47]
IC50 [2]: 170 nM | IC50 [3]: 822 nM | IC50 [4]: 79.3 nM | IC50 [5]: 9.92 nM | IC50 [6]: 48.3 nM | IC50 [7]: 1000 nM | IC50 [8]: 2.7 nM

Cc1c2c(nn1CCN1CCCC1)OCCOC(C)c1c(cnn1C)-c1ccc3[nH]nc(c3c1)/C=C/2 (stereo not given) [US20250353864, Example 84]
IC50 [1]: 1080 nM | IC50 [2]: 28.2 nM | IC50 [3]: 285 nM | IC50 [4]: 30.8 nM

Cc1c2c(nn1CCN1CCCC1)CN(C)C[C@H](C)Oc1c(cnn1C)-c1ccc3[nH]nc(c3c1)/C=C/2 [US20250353864, Example 89]
IC50 [1]: 64 nM | IC50 [2]: 0.45 nM | IC50 [3]: 4.66 nM | IC50 [4]: 0.06 nM

CCOc1nn(CCO)c2c1/C=C/c1n[nH]c3ccc(cc13)-c1cnn(C)c1OC1CCCN(C2)C1C (stereo not given) [US20250353864, Example 242]
IC50 [1]: 381 nM | IC50 [2]: 4.93 nM | IC50 [3]: 124 nM | IC50 [4]: 9.27 nM

— BindingDB's records for patent US20250353864 (Blossomhill Therapeutics, 2025)
